# Publication PMC8811472, “Systematic In Vitro Evaluation of a Library of Approved and Pharmacologically Active Compounds for the Identification of Novel Candidate Drugs for KMT2A-Rearranged Leukemia” (Frontiers in Oncology, 2022)
# Key:
# PER-485 cells [1] = assay: 72-hour resazurin-based cytotoxicity assay, PER-485; format: cell-based, human; conditions: PER-485, KMT2A-r t(4;11), infant ALL derived
# Description: (§1) All cell lines used in this study were mycoplasma-free and have been authenticated using STR profiling. Cells were cultured as previously described ([7], [8]). Characteristics of the leukemia cell lines used in this study are described in Supplementary Table 1 . Peripheral blood mononuclear cells from healthy donors were purchased from Australian Red Cross.
# (§2) The cytotoxicity of drugs was assessed through resazurin-based assays and the inhibitory concentration resulting in 50% reduction of cell survival relative to control (IC50) was calculated as previously described ([7]). In synergy studies, cells were exposed to a dilution series of compounds, as single agents or in combination, in resazurin-based assays (72 hours) as described ([8]–[10]). The occurrence of synergy was determined with the Bliss Independence model as previously described ([8]–[10]). Bliss Prediction curves indicated the predicted percentage viability of the cells when exposed to the combination of compounds if both compounds work additively together. Synergy was visualised as the presence of a lower cell viability upon combination of two compounds compared to the viability predicted based on the presence of an additive effect of the compounds (i.e., the viability curve of the combination runs below the Bliss Prediction curve). The percentage of apoptotic cells was assessed by annexin V and 7-Aminoactinomycin D (7-AAD) (BD Biosciences, Australia) flow cytometry as previously described ([7]).
# THP-1 cells = assay: 72-hour resazurin-based cytotoxicity assay, THP-1; format: cell-based, human; conditions: THP-1, KMT2A-r t(9;11), infant AML
# Description: as §1, §2
# MOLM-13 cells = assay: 72-hour resazurin-based cytotoxicity assay, MOLM-13; format: cell-based, human; conditions: MOLM-13, KMT2A-r t(9;11), AML
# Description: as §1, §2
# SEMK2 cells = assay: 72-hour resazurin-based cytotoxicity assay, SEMK2; parameters: species or system human; conditions: SEMK2, KMT2A-r t(4;11), pre-B cell childhood ALL
# Description: as §1, §2
# RS4;11 cells = assay: 72-hour resazurin-based cytotoxicity assay, RS4;11; parameters: species or system human; conditions: RS4;11, KMT2A-r t(4;11), pre-B cell ALL
# Description: as §1, §2
# CEM cells = assay: 72-hour resazurin-based cytotoxicity assay, CEM; parameters: species or system human; conditions: KMT2A-wt, childhood T-cell ALL
# Description: as §1, §2
# REH cells = assay: 72-hour resazurin-based cytotoxicity assay, REH; parameters: species or system human; conditions: KMT2A-wt, pre-B cell ALL
# Description: as §1, §2
# Jurkat cells = assay: 72-hour resazurin-based cytotoxicity assay, Jurkat; parameters: species or system human; conditions: KMT2A-wt, childhood T-cell ALL
# Description: as §1, §2
# MRC-5 cells = assay: 72-hour resazurin-based cytotoxicity assay, MRC-5; format: cell-based, human; conditions: normal lung
# Description: as §1, §2
# U937 cells = assay: 72-hour resazurin-based cytotoxicity assay, U937; format: cell-based, human; conditions: U937, CALM-AF10, AML
# Description: as §1
# as §2, with “The percentage of apoptotic cells was assessed by annexin V and 7-Aminoactinomycin D (7-AAD) (BD Biosciences, Australia) flow cytometry as previously described ([7]).” left out
# KP-MO-TS cells = assay: 72-hour resazurin-based cytotoxicity assay, KP-MO-TS; format: cell-based, human; conditions: CALM-AF10, AML
# Description: as §1
# as §2, with “The percentage of apoptotic cells was assessed by annexin V and 7-Aminoactinomycin D (7-AAD) (BD Biosciences, Australia) flow cytometry as previously described ([7]).” left out
# PER-490 cells = assay: 72-hour resazurin-based cytotoxicity assay, PER-490; format: cell-based, human; conditions: PER-490, KMT2A-r t(4;11), infant ALL
# Description: as §1
# as §2, with “The percentage of apoptotic cells was assessed by annexin V and 7-Aminoactinomycin D (7-AAD) (BD Biosciences, Australia) flow cytometry as previously described ([7]).” left out
# PER-703 cells = assay: 72-hour resazurin-based cytotoxicity assay, PER-703; format: cell-based, human; conditions: PER-703, KMT2A-r t(1;11), infant ALL derived
# Description: as §1
# as §2, with “The percentage of apoptotic cells was assessed by annexin V and 7-Aminoactinomycin D (7-AAD) (BD Biosciences, Australia) flow cytometry as previously described ([7]).” left out
# PER-785 cells = assay: 72-hour resazurin-based cytotoxicity assay, PER-785; format: cell-based, human; conditions: PER-785, KMT2A-r t(4;11), infant ALL
# Description: as §1
# as §2, with “The percentage of apoptotic cells was assessed by annexin V and 7-Aminoactinomycin D (7-AAD) (BD Biosciences, Australia) flow cytometry as previously described ([7]).” left out
# PER-826 cells = assay: 72-hour resazurin-based cytotoxicity assay, PER-826; format: cell-based, human; conditions: PER-826, KMT2A-r complex t(11;19), infant ALL
# Description: as §1
# as §2, with “The percentage of apoptotic cells was assessed by annexin V and 7-Aminoactinomycin D (7-AAD) (BD Biosciences, Australia) flow cytometry as previously described ([7]).” left out
# KOPN-8 cells = assay: 72-hour resazurin-based cytotoxicity assay, KOPN-8; parameters: species or system human; conditions: KOPN-8, KMT2A-r t(11;19), infant pre-B cell ALL
# Description: as §1
# as §2, with “The percentage of apoptotic cells was assessed by annexin V and 7-Aminoactinomycin D (7-AAD) (BD Biosciences, Australia) flow cytometry as previously described ([7]).” left out
# MV4;11 cells = assay: 72-hour resazurin-based cytotoxicity assay, MV4;11; format: cell-based, human; conditions: MV4;11, KMT2A-r t(4;11), childhood AML
# Description: as §1
# as §2, with “The percentage of apoptotic cells was assessed by annexin V and 7-Aminoactinomycin D (7-AAD) (BD Biosciences, Australia) flow cytometry as previously described ([7]).” left out
# KELLY cells = assay: 72-hour resazurin-based cytotoxicity assay, KELLY; format: cell-based, human; conditions: neuroblastoma
# Description: as §1
# as §2, with “The percentage of apoptotic cells was assessed by annexin V and 7-Aminoactinomycin D (7-AAD) (BD Biosciences, Australia) flow cytometry as previously described ([7]).” left out
# BE(2)C cells = assay: 72-hour resazurin-based cytotoxicity assay, BE(2)C; format: cell-based, human; conditions: childhood neuroblastoma
# Description: as §1
# as §2, with “The percentage of apoptotic cells was assessed by annexin V and 7-Aminoactinomycin D (7-AAD) (BD Biosciences, Australia) flow cytometry as previously described ([7]).” left out
# HEY cells = assay: 72-hour resazurin-based cytotoxicity assay, HEY; format: cell-based, human; conditions: ovarian carcinoma
# Description: as §1
# as §2, with “The percentage of apoptotic cells was assessed by annexin V and 7-Aminoactinomycin D (7-AAD) (BD Biosciences, Australia) flow cytometry as previously described ([7]).” left out
# 27/87 cells = assay: 72-hour resazurin-based cytotoxicity assay, 27/87; format: cell-based, human; conditions: 27/87, endometrioid ovarian cancer
# Description: as §1
# as §2, with “The percentage of apoptotic cells was assessed by annexin V and 7-Aminoactinomycin D (7-AAD) (BD Biosciences, Australia) flow cytometry as previously described ([7]).” left out
# MCF-7 cells = assay: 72-hour resazurin-based cytotoxicity assay, MCF-7; format: cell-based, human; conditions: MCF-7, breast adenocarcinoma
# Description: as §1
# as §2, with “The percentage of apoptotic cells was assessed by annexin V and 7-Aminoactinomycin D (7-AAD) (BD Biosciences, Australia) flow cytometry as previously described ([7]).” left out
# H460 cells = assay: 72-hour resazurin-based cytotoxicity assay, H460; format: cell-based, human; conditions: H460, lung carcinoma
# Description: as §1
# as §2, with “The percentage of apoptotic cells was assessed by annexin V and 7-Aminoactinomycin D (7-AAD) (BD Biosciences, Australia) flow cytometry as previously described ([7]).” left out
# LNCaP cells = assay: 72-hour resazurin-based cytotoxicity assay, LNCaP; format: cell-based, human; conditions: prostate carcinoma
# Description: as §1
# as §2, with “The percentage of apoptotic cells was assessed by annexin V and 7-Aminoactinomycin D (7-AAD) (BD Biosciences, Australia) flow cytometry as previously described ([7]).” left out
# WI-38 cells = assay: 72-hour resazurin-based cytotoxicity assay, WI-38; format: cell-based, human; conditions: WI-38, non-malignant, normal lung
# Description: as §1
# as §2, with “The percentage of apoptotic cells was assessed by annexin V and 7-Aminoactinomycin D (7-AAD) (BD Biosciences, Australia) flow cytometry as previously described ([7]).” left out
# [2] = test system: peripheral blood mononuclear cells from healthy donors; assay: 72-hour resazurin-based viability assay, PBMC from healthy donors; format: cell-based, human; conditions: for IC50: PBMC, 72 h resazurin
# Description: as §1, §2
# [3] = test system: KMT2A-r cells (PER-485 and THP-1); assay: Annexin V positive cells, KMT2A-r cells; format: cell-based, human; conditions: as early as 6 hours post-exposure; IC50 doses
# Description: as §2
# [4] = test system: cleavage of PARP and caspase-3; assay: Western blot of apoptotic markers; format: cell-based, human; conditions: sensitive KMT2A-r leukemia cells, not in KMT2A-wt
# Description: Western blotting experiments were performed as previously described ([7]). Antibodies used are listed in Supplementary Table 2 . Actin was used as a loading control.
# [5] = test system: NR5A1 target genes ENO1 and PKM; KMT2A target genes; assay: qRT-PCR of gene expression after treatment; format: cell-based, human; conditions: three hours
# Description: Total RNA was isolated using a Qiagen RNeasy kit and cDNA synthesized using the iScript cDNA Synthesis Kit (BioRad). Quantitative PCR was run and analyzed on Applied Biosystem’s QuantStudio5 Real-Time PCR Detection System, using Taqman gene expression assays for genes NR5A1 (Hs00610436_m1), GUSB (Hs99999908_m1) and HPRT (Hs99999909_m1) Relative expressions were determined as previously described ([7]).
# PER-485 cells [6] = assay: Synergy study (Bliss Independence model), PER-485; format: cell-based, human; conditions: PER-485, 72 h
# Description: as §2
# MOLM13 cells = assay: Synergy study (Bliss Independence model), MOLM13; format: cell-based, human; conditions: MOLM13, 72 h
# Description: as §2
# KMT2A-wt REH cells = assay: Synergy study (Bliss Independence model), REH; format: cell-based, human; conditions: 72 h
# Description: as §2
# [7] = Mouse liver microsomal stability assay; format: in vitro ADME; conditions: mouse liver microsomes
# Description: Compound half-life was estimated by mouse liver microsomal stability assays as described ([10]).
# [8] = test system: THP-1 and REH versus 2-Cl-ATP-sensitive KMT2A-r cells; assay: Resazurin-based viability assays of nucleoside analogs in leukemia cell line panel; parameters: species or system human
# Description: as §2
structure (smiles),measurement,setting,value
"CN(C(=O)CN(CCO)CC(=O)N(C)C(C)(C)Cc1ccccc1)C(C)(C)Cc1ccccc1 [Oxethazaine, oxethazaine]",IC50,PER-485 cells [1]; Homo sapiens,3.6 µM
same,IC50,THP-1 cells; Homo sapiens,15 µM
same,IC50,MOLM-13 cells; Homo sapiens,3.8 µM
same,IC50,SEMK2 cells; Homo sapiens,8.9 µM
same,IC50,"RS4;11 cells; Homo sapiens, RS4-11, 72 h",9 µM
same,IC50,"CEM cells; Homo sapiens, CCRF-CEM",10.6 µM
same,IC50,REH cells; Homo sapiens,4.9 µM
same,IC50,Jurkat cells; Homo sapiens,18.9 µM
same,IC50,"MRC-5 cells; Homo sapiens, MRC5, MRC-5, non-malignant",> 20 µM
CCOC(=O)C(C)Oc1cccc2c(=O)n(CC(=O)Nc3ccc4c(c3)OCCO4)ccc12 (stereo not shown) [SID7969543],IC50,U937 cells,1.9 µM
same,IC50,KP-MO-TS cells,1.9 µM
same,IC50,PER-485 cells [1],1.4 µM
same,IC50,PER-490 cells,1.9 µM
same,IC50,THP-1 cells,2.6 µM
same,IC50,PER-703 cells,4.9 µM
same,IC50,PER-785 cells,5 µM
same,IC50,PER-826 cells,> 20 µM
same,IC50,KOPN-8 cells,> 20 µM
same,IC50,MOLM-13 cells,1 µM
same,IC50,MV4;11 cells,2.5 µM
same,IC50,SEMK2 cells,> 20 µM
same,IC50,RS4;11 cells,> 20 µM
same,IC50,CEM cells,> 20 µM
same,IC50,REH cells,> 20 µM
same,IC50,Jurkat cells,> 20 µM
same,IC50,KELLY cells,> 20 µM
same,IC50,BE(2)C cells,> 20 µM
same,IC50,HEY cells,> 20 µM
same,IC50,27/87 cells,> 20 µM
same,IC50,MCF-7 cells,> 20 µM
same,IC50,H460 cells,> 20 µM
same,IC50,LNCaP cells,> 20 µM
same,IC50,"MRC-5 cells; MRC-5, non-malignant",> 20 µM
same,IC50,WI-38 cells,> 20 µM
same,IC50,[2]; Donor 1,> 20 µM
same,IC50,[2]; Donor 2,> 20 µM
same,IC50,[2]; Donor 3,> 20 µM
same,viability of peripheral blood mononuclear cells (PBMC),"[2]; healthy donors, doses that inhibit KMT2A-r leukemia cells",did not significantly impact the viability
same,percentage of annexin V-positive KMT2A-r cells,[3],significantly increased
same,cleavage of PARP and caspase-3,[4],increased cleavage
same,"expression of genes not regulated by NR5A1 (HOXA9, HOXA10, MEIS1, MYB)",[5]; KMT2A-r cell lines,remained unchanged
same,expression of NR5A1 target genes ENO1 and PKM,"[5]; sensitive KMT2A-r cell lines, before induction of apoptosis",significantly decreased
same,combination effect (Bliss),PER-485 cells [6]; with cytarabine,synergy
same,combination effect (Bliss),PER-485 cells [6]; with daunorubicin,synergy
same,combination effect (Bliss),PER-485 cells [6]; with etoposide,synergy
same,combination effect (Bliss),PER-485 cells [6]; with mitoxantrone,additive
same,combination effect (Bliss),PER-485 cells [6]; with topotecan,additive
same,combination effect (Bliss),MOLM13 cells; with cytarabine,synergy
same,combination effect (Bliss),MOLM13 cells; with daunorubicin,synergy
same,combination effect (Bliss),MOLM13 cells; with etoposide,additive
same,combination effect (Bliss),MOLM13 cells; with mitoxantrone,additive
same,combination effect (Bliss),MOLM13 cells; with topotecan,additive
same,combination effect (Bliss),KMT2A-wt REH cells; with cytarabine,No synergy
same,combination effect (Bliss),KMT2A-wt REH cells; with daunorubicin,No synergy
same,combination effect (Bliss),KMT2A-wt REH cells; with etoposide,No synergy
same,half-life in microsomal stability assays,[7],short half-life
Nc1nc(Cl)nc2c1ncn2[C@H]1C[C@H](O)[C@@H](CO)O1 [cladribine],response of 2-Cl-ATP-resistant cell lines THP-1 and REH compared with 2-Cl-ATP-sensitive KMT2A-r cells,[8],less responsive
"O=C(O)c1cc2c(cn1)[nH]c1ccccc12 [β-CCB, β-carboline-3-carboxylate]",IC50,PER-485 cells [1],2.6 µM
